From PMC2760403 (The Journal of organic chemistry, 2009)

Assays:
Assay type in all cases: biochemical
[1] = molecular target: M. tuberculosis Riboflavin Synthase (Mycobacterium tuberculosis, UniProt P9WK35); assay: Riboflavin synthase kinetic inhibition assay; settings: recombinant M. tuberculosis RS; for kcat (rate constant ES → E + P): fit of the compound's data set; for kcat (rate constant ES → E + P) / Kis (inhibitor dissociation constant, ES + I ⇌ ESI): pH 7.0
[2] = molecular target: M. tuberculosis Lumazine Synthase (Mycobacterium tuberculosis, UniProt P9WHE9); settings: recombinant M. tuberculosis LS; for kcat (rate constant ES → E + P): fit of the compound's data set; for kcat (rate constant ES → E + P) / Kis (inhibitor dissociation constant, ES + I ⇌ ESI): pH 7.0; for Kis (inhibitor dissociation constant, ES + I ⇌ ESI): substrate 1 varied, 2 constant
[3] = molecular target: T1, S. pombe Lumazine Synthase (Schizosaccharomyces pombe, UniProt Q9UUB1); assay: Lumazine synthase kinetic inhibition assay; settings: recombinant S. pombe LS; for kcat (rate constant ES → E + P): fit of the compound's data set; for kcat (rate constant ES → E + P) / Kis (inhibitor dissociation constant, ES + I ⇌ ESI): pH 7.0; for Kis (inhibitor dissociation constant, ES + I ⇌ ESI): substrate 1 varied, 2 constant
T1 sequence (Q9UUB1 1-159): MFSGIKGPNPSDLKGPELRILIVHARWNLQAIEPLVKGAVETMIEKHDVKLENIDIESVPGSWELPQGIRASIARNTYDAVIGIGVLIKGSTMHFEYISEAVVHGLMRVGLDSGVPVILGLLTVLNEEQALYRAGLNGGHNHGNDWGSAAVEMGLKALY

[4] = molecular target: E. coli Riboflavin Synthase (Escherichia coli, UniProt P0AFU8); assay: Riboflavin synthase kinetic inhibition assay; settings: recombinant E. coli RS; for kcat (rate constant ES → E + P): fit of the compound's data set; for kcat (rate constant ES → E + P) / Kis (inhibitor dissociation constant, ES + I ⇌ ESI): pH 7.0
Chain of E. coli Riboflavin Synthase (P0AFU8 whole entry): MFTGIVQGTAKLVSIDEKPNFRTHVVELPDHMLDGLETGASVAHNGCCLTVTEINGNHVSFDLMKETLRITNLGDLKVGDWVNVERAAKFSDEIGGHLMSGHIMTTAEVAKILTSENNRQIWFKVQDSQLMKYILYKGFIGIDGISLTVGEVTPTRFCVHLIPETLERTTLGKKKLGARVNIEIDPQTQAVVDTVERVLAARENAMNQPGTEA

Chain of M. tuberculosis Riboflavin Synthase (P9WK35 whole entry): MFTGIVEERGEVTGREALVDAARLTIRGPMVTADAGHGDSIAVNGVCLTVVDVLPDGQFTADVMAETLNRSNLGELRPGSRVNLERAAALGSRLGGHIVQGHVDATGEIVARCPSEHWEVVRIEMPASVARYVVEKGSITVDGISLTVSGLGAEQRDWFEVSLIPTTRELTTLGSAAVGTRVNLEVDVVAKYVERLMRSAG
Chain of M. tuberculosis Lumazine Synthase (P9WHE9 whole entry): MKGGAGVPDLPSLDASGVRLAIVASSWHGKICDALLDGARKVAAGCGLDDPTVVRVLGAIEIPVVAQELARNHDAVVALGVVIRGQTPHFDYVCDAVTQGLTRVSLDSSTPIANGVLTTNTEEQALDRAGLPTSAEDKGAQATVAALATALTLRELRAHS

Compound | Mode of inhibition [1] | kcat (rate constant ES → E + P) [1] [s⁻¹] | Kis (inhibitor dissociation constant, ES + I ⇌ ESI) [1] [µM] | Mode of inhibition [2] | kcat (rate constant ES → E + P) [2] [s⁻¹] | Kis (inhibitor dissociation constant, ES + I ⇌ ESI) [2] [µM] | Mode of inhibition [3] | kcat (rate constant ES → E + P) [3] [s⁻¹] | Kis (inhibitor dissociation constant, ES + I ⇌ ESI) [3] [µM] | Mode of inhibition [4] | kcat (rate constant ES → E + P) [4] [s⁻¹] | Kis (inhibitor dissociation constant, ES + I ⇌ ESI) [4] [µM] | Inhibitory activity in words [3] | Inhibitory activity in words [4]
O=c1[nH]c(/C=C/c2ccc(F)cc2)c([N+](=O)[O-])c(=O)[nH]1 [Compound 29, (E)-6-(4-Fluorostyryl)-5-nitropyrimidine-2,4(1H,3H)-dione] | Mixed | 0.00667 ± 0.00017 | 776 ± 294 | Mixed | 0.0065 ± 0.00033 | 25 ± 8 |  |  |  |  |  |  |  | 
O=c1[nH]c(/C=C/C2C=Nc3ccccc32)c([N+](=O)[O-])c(=O)[nH]1 (centres unmarked) [Compound 44, (E)-6-(2-(3H-Indol-3-yl)vinyl)-5-nitropyrimidine-2,4(1H,3H)-dione] |  |  |  | Mixed | 0.00667 ± 0.00017 | 488 ± 233 | Mixed | 0.0327 ± 0.00067 | 376 ± 127 | Uncompetitive | 0.0567 ± 0.00067 | 426 ± 64 |  | 
O=c1[nH]c(/C=C/c2ccc(O)cc2)c([N+](=O)[O-])c(=O)[nH]1 [Compound 16, (E)-6-(4-Hydroxystyryl)-5-nitropyrimidine-2,4(1H,3H)-dione] |  |  |  | Partial | 0.00717 ± 0.00017 | 17 ± 5 |  |  |  |  |  |  | completely ineffective | completely ineffective
O=c1[nH]c(/C=C/c2ccc([N+](=O)[O-])c(O)c2)c([N+](=O)[O-])c(=O)[nH]1 [Compound 35, (E)-6-(3-Hydroxy-4-nitrostyryl)-5-nitropyrimidine-2,4(1H,3H)-dione] |  |  |  | Competitive | 0.00633 ± 0.00017 |  | Mixed | 0.0188 ± 0.00017 | 497 ± 159 | Uncompetitive | 0.0717 ± 0.0017 | 224 ± 22 |  | 
O=c1[nH]c(/C=C/c2cc(O)ccc2O)c([N+](=O)[O-])c(=O)[nH]1 [Compound 18, (E)-6-(2,5-Dihydroxystyryl)-5-nitropyrimidine-2,4(1H,3H)-dione] | Uncompetitive | 0.00367 ± 0.00033 | 398 ± 156 | Uncompetitive | 0.00283 ± 0.00017 | 420 ± 168 | Uncompetitive | 0.0245 ± 0.00067 | 53 ± 5 | Uncompetitive | 0.085 ± 0.0017 | 122 ± 10 |  | 
5-Amino-(2-hydroxy-2-phenethyl)pyrimidine-2,4-(1H,3H)-dione [Compound 50] |  |  |  |  |  |  |  |  |  | Uncompetitive | 0.07 ± 0.0017 | 788 ± 148 |  | 
O=c1[nH]c(/C=C/c2cccc(O)c2O)c([N+](=O)[O-])c(=O)[nH]1 [Compound 17, (E)-6-(2,3-Dihydroxystyryl)-5-nitropyrimidine-2,4(1H,3H)-dione] | Partial | 0.0045 ± 0.00033 | 37 ± 16 | Mixed | 0.006 ± 0.00017 | 81 ± 29 | Partial | 0.0262 ± 0.00033 | 16 ± 3 | Mixed | 0.085 ± 0.0017 | 26 ± 4 |  | 
O=c1[nH]c(/C=C/c2ccc[nH]2)c([N+](=O)[O-])c(=O)[nH]1 [Compound 40, (E)-5-Nitro-6-[2-(1H-pyrrol-2-yl)vinyl]pyrimidine-2,4(1H,3H)-dione] |  |  |  | Partial | 0.00633 ± 0.00017 | 42 ± 12 | Mixed | 0.0173 ± 0.00017 | 248 ± 67 | Mixed | 0.06 ± 0.0017 | 806 ± 401 |  | 
O=c1[nH]c(/C=C/c2cccc(O)c2)c([N+](=O)[O-])c(=O)[nH]1 [Compound 15, (E)-6-(3-Hydroxystyryl)-5-nitropyrimidine-2,4(1H,3H)-dione] |  |  |  | Competitive | 0.00383 ± 0.00017 |  |  |  |  |  |  |  | completely ineffective | completely ineffective
O=c1[nH]c(/C=C/c2ccccc2O)c([N+](=O)[O-])c(=O)[nH]1 [Compound 9, (E)-5-Nitro-6-(2-hydroxystyryl)pyrimidine-2,4(1H,3H)-dione] | Uncompetitive | 0.0683 ± 0.0033 | 917 ± 212 | Competitive | 0.00433 ± 0.00017 |  | Competitive | 0.023 ± 0.0005 |  |  |  |  |  | 
O=c1[nH]c(CCc2ccc(O)cc2)c([N+](=O)[O-])c(=O)[nH]1 [Compound 48, 6-(4-Hydroxy-2-phenethyl)-5-nitropyrimidine-2,4(1H,3H)-dione] | Uncompetitive | 0.00567 ± 0.00017 | 449 ± 45 |  |  |  |  |  |  |  |  |  |  | 
O=c1[nH]c(/C=C/c2ccc(O)c([N+](=O)[O-])c2)c([N+](=O)[O-])c(=O)[nH]1 [Compound 36, (E)-6-(4-Hydroxy-3-nitrostyryl)-5-nitropyrimidine-2,4(1H,3H)-dione] |  |  |  | Mixed | 0.00617 ± 0.00017 | 461 ± 150 | Uncompetitive | 0.022 ± 0.00017 | 276 ± 16 |  |  |  |  | 
O=c1[nH]c(/C=C/c2cc([N+](=O)[O-])ccc2O)c([N+](=O)[O-])c(=O)[nH]1 [Compound 32, (E)-6-(2-Hydroxy-5-nitrostyryl)-5-nitropyrimidine-2,4(1H,3H)-dione] | Uncompetitive | 0.00783 ± 0.00017 | 800 ± 107 | Competitive | 0.0107 ± 0.0005 |  |  |  |  |  |  |  |  | 
COc1cc(/C=C/c2[nH]c(=O)[nH]c(=O)c2[N+](=O)[O-])cc(OC)c1OC [Compound 24, (E)-6-(3,4,5-Trimethoxystyryl)-5-nitropyrimidine-2,4(1H,3H)-dione] |  |  |  | Mixed | 0.0045 ± 0.00017 | 37 ± 5 | Uncompetitive | 0.0233 ± 0.0005 | 47 ± 4 |  |  |  |  | 
O=c1[nH]c(/C=C/c2ccc3ccccc3c2)c([N+](=O)[O-])c(=O)[nH]1 [Compound 43, (E)-6-(2-(Naphthalene-2-yl)vinyl)-5-nitropyrimidine-2,4(1H,3H)-dione] |  |  |  | Partial | 0.00617 ± 0.00017 | 72 ± 31 | Mixed | 0.043 ± 0.00033 | 476 ± 89 | Uncompetitive | 0.0553 ± 0.00083 | 270 ± 32 |  | 
O=c1[nH]c(/C=C/c2ccc(Br)cc2)c([N+](=O)[O-])c(=O)[nH]1 [Compound 30, (E)-5-Nitro-6-(4-bromostyryl)pyrimidine-2,4(1H,3H)-dione] |  |  |  | Mixed | 0.00567 ± 0.00017 | 234 ± 59 | Uncompetitive | 0.0205 ± 0.00017 | 604 ± 54 |  |  |  |  | 
COc1cccc(/C=C/c2[nH]c(=O)[nH]c(=O)c2[N+](=O)[O-])c1F [Compound 38, (E)-6-(2-Fluoro-3-methoxystyryl)-5-nitropyrimidine-2,4(1H,3H)-dione] |  |  |  | Mixed | 0.00583 ± 0.00017 | 89 ± 11 | Mixed | 0.0165 ± 0.00017 | 390 ± 90 |  |  |  |  | 
